Literature values in publication PMC2033546, “Effects of somatostatin analogue RC-160 and bombesin/gastrin-releasing peptide antagonists on the growth of human small-cell and non-small-cell lung carcinomas in nude mice” (British Journal of Cancer, 1994).

Assays:
EGF receptors = details: various cancer lines and cancer specimens; ref Liebow et al., 1992; cited from earlier work
From the text: (§1) Br. J. Cancer (1994). 70, 886 892 ? Macmillan Press Ltd..

SCLC xenografts = details: nude mice; ref Alexander et al., 1988; cited from earlier work
From the text: as §1

SCLC = details: in vitro; ref Carney et al., 1987; cited from earlier work
From the text: as §1

Bombesin
Effect on phosphorylation of EGF receptors (in words) (EGF receptors): enhance the phosphorylation of EGF receptors | Effect on growth of SCLC xenografts (in words) (SCLC xenografts): stimulates | Effect on clonal growth of SCLC and DNA synthesis (in words) (SCLC): stimulates the clonal growth of SCLC and DNA synthesis in vitro
